From patent US4971967A, “Quinolinecarboxylic acid derivatives, antibacterial compositions and use” (Kanebo Ltd, priority 1989, dated 1990)
≈ marks a conversion by molar mass, not a printed value.

Tests used:
[1] = tested on: Salmonella typhimurium IID 971; assay: Antibacterial activity (MIC), Salmonella typhimurium IID 971; type: cell-based; details: Salmonella enterica; Salmonella typhimurium IID 971, Gram -; read-out: Minimum inhibitory concentration (MIC)
Method in brief: (§1)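 Dissolve compound in 0.1 N aqueous sodium hydroxide or sterilized distilled water to 5000 μg/ml; dilute to a 1000 μg/ml standard; measure MIC as prescribed by the Japan Society of Chemotherapy.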

[2] = tested on: clinically isolated methicillin resistant Staphylococcus aureus; assay: MIC against clinically isolated methicillin resistant Staphylococcus aureus; type: cell-based; details: 54 strains; for MIC50: minimum concentration for inhibiting growth of the strains by 50%; for MIC90: minimum concentration for inhibiting growth of the strains by 90%
Method: The compounds (A) and (J) of the present invention and the known compound (X) were dissolved in 0.1 N aqueous sodium hydroxide, and the known compound (Y) in sterilized distilled water, to prepare a solution of 5000 μg/ml in concentration each. The above solutions were then diluted with sterilized distilled water to prepare a standard solution with a concentration of the test compound: 1000 μg/ml each. The test was carried out by a method appointed by Japan Society of Chemotherapy (ibidem) to measure minimum inhibitory concentration (MIC) against 54 strains of clinically isolated methicillin resistant Staphylococcus aureus, from which there were calculated a range of MIC (MICrange) of the test compound against these resistant strains, a minimum concentration for inhibiting the growth of the strains by 50% (MIC50) and a minimum concentration for inhibiting the growth of the strains by 90% (MIC90).

[3] = tested on: Pseudomonas aeruginosa IFO 3445; assay: Antibacterial activity (MIC), P. aeruginosa IFO 3445; type: cell-based; details: Pseudomonas aeruginosa, IFO3445, Pseudomonas aeruginosa IFO 3445, Gram -; read-out: Minimum inhibitory concentration (MIC)
Method in brief: as §1

[4] = tested on: Acinetobacter calcoaceticus AC 54; assay: Antibacterial activity (MIC), Acinetobacter calcoaceticus AC 54; type: cell-based; details: Acinetobacter calcoaceticus, AC54, read-out: Minimum inhibitory concentration (MIC), Acinetobacter calcoaceticus AC 54, Gram -
Method in brief: as §1

[5] = tested on: Bacillus subtilis ATCC 6633; assay: Antibacterial activity (MIC), Bacillus subtilis ATCC 6633; type: cell-based
Method in brief: as §1

[6] = tested on: Escherichia coli NIHJ JC-2; assay: Antibacterial activity (MIC), E. coli NIHJ JC-2; type: cell-based; details: NIHJJC2; Escherichia coli NIHJ JC-2, Gram -; read-out: Minimum inhibitory concentration (MIC)
Method in brief: as §1

infection = assay: Protective effects against infection (Experiments 3 and 4); type: in vivo, ddY male mice; details: result in words
Method: The test microorganisms were subjected to standing culture in Trypto-Soya Agar "Nissui" (made by Nissui Seiyaku K.K., Japan) at 37° C. for 16 to 18 hours. The culture was then diluted with PBS (Dulbecco's phosphate buffered saline) and mixed with an equivalent amount of 10% (w/v) Mucin (BACTO MUCIN BACTERIOLOGICAL, made by Difco Co.) to prepare a microorganism solution. The thus prepared microorganism solution (0.5 ml each) was intraperitoneally inoculated to ddY male mice (5 weeks age, weighing 25-28 g, 5 mice in each group), to infect the animals. One hour after the infection, the compound (A) or (J) of the present invention or the known compound (X) suspended in 1% (w/v) aqueous gum arabic or the known compound (Y) dissolved in sterilized distilled water was orally adiministered to mice.
The mice were daily observed for one week, and from the survival number of mice after one week, the 50% effective dose (ED50) was calculated by Weil method.
The procedure of Experiment 3 was repeated except that ddY male mice weighing 24 to 28 g were employed.

Escherichia coli KC-14 = assay: Antibacterial activity (MIC), E. coli KC-14; type: cell-based; details: KC14; Escherichia coli KC-14, Gram -; read-out: Minimum inhibitory concentration (MIC)
Method in brief: as §1

| SMILES | MIC [1] | MIC [2] | MIC50 [2] | MIC90 [2] | MIC [3] | MIC [4] | Minimum inhibitory concentration (MIC) ([5]; Bacillus subtilis ATCC 6633, Gram +) | MIC [6] | protective effects against infection (infection) | MIC (Escherichia coli KC-14) | MIC ([5]; Bacillus subtilis, ATCC6633, Bacillus subtilis ATCC 6633, Gram +, read-out: Minimum inhibitory concentration (MIC)) |
| --- | --- | --- | --- | --- | --- | --- | --- | --- | --- | --- | --- |
| CN1CCN(c2c(F)cc3c(=O)c(C(=O)O)c4scc5n4c3c2N(C)C5)CC1 [Compound (A), 9,1-(Methylimino)methano-7-fluoro-8-(4-methyl-1-piperazinyl)-5-oxo-5H-thiazolo[3,2-a]quinoline-4-carboxylic acid] | 0.05 µg/mL (≈ 0.124 µM) | 0.025 to 0.1 µg/mL (≈ 0.0621 to 0.248 µM) | 0.05 µg/mL (≈ 0.124 µM) | 0.1 µg/mL (≈ 0.248 µM) | 0.39 µg/mL (≈ 0.969 µM) | 0.025 µg/mL (≈ 0.0621 µM) | 6 ng/mL | 0.05 µg/mL (≈ 0.124 µM) | excellent protective effects against infection | 0.05 µg/mL (≈ 0.124 µM) | – |
| CCN1CCN(c2c(F)cc3c(=O)c(C(=O)O)c4scc5n4c3c2N(C)C5)CC1 [Compound (J), 9,1-(Methylimino)methano-7-fluoro-8-(4-ethyl-1-piperazinyl)-5-oxo-5H-thiazolo[3,2-a]quinoline-4-carboxylic acid] | – | 0.025 to 0.1 µg/mL (≈ 0.06 to 0.24 µM) | 0.05 µg/mL (≈ 0.12 µM) | 0.1 µg/mL (≈ 0.24 µM) | 0.78 µg/mL (≈ 1.87 µM) | – | – | 0.1 µg/mL (≈ 0.24 µM) | excellent protective effects against infection | – | 0.025 µg/mL (≈ 0.06 µM) |
